Source: article PMC10823475, “Design, Synthesis, and Evaluation of Inhibitors of Hedgehog Acyltransferase” (Journal of Medicinal Chemistry, 2024)

Experiments:
[1] = MTS assay, cytotoxicity (72 h); assay type: cell-based; settings: human, HEK293a SHH+ cells, 72 h; for CC50 at 72 h: read-out: MTS Assay (HEK293a SHH+) CC50 (CI95)
Description: The survival of HEK293a SHH^+ cells is independent of HH signaling,[35] therefore, the cytotoxicity of analogues was tested using the MTS assay to investigate off-target toxicity. In this assay, HEK293a SHH^+ cells were treated with DMSO vehicle or varying concentrations of analogues for 72 h. Subsequently, a mixture of 1-methoxy phenazine methosulfate (PMS) and [3-(4,5-dimethylthiazol-2-yl)-5-(3-carboxymethoxyphenyl)-2-(4-sulfophenyl)-2H-tetrazolium] (MTS) was added to enable quantification of cell number via colorimetric analysis. […] Compounds 3, 17, 19, 32, 34, 38, and 45, which all contain a 2-((2-methylbutyl)amino)acetyl, were toxic to HEK293a SHH^+ cells, as were ureas 26, 40, and 41.
HEK293a SHH^+ cells were plated at 5000 cells/well in a 96-well plate (Nunc) using a volume of 50 μL/well and cultured for 24 h as described. Cells were treated with 100 μL/well of either DMSO vehicle, Puromycin (2 μg/mL), or stated analogues (0.14–100 μM final) in DMEM supplemented with 10% FBS. After 72 h, 20 μL/well of a mixture of 1-methoxy phenazine methosulfate (PMS) and [3-(4,5-dimethylthiazol-2-yl)-5-(3-carboxymethoxyphenyl)-2-(4-sulfophenyl)-2H-tetrazolium] (MTS) at a ratio of MTS/PMS = 2/0.92 mg/mL in PBS was added and the plates were incubated for 3 h at 37 °C. Subsequently, the absorption at 490 nm was recorded using an EnVision Xcite 2104 (PerkinElmer), and the response was normalized to vehicle control and Puromycin treated samples. Dose response curves were fitted to a “sigmoidal dose response (variable slope)” model using GraphPad Prism 5 (GraphPad Software, Inc.).

purified HHAT = target: T1, purified HHAT (Homo sapiens, UniProt Q5VTY9); assay: Acyl-cLIP assay, inhibition of purified HHAT; assay type: biochemical; settings: for IC50: purified HHAT, read-out: Acyl-cLIP Assay IC50 (CI95)
T1 construct: made in house
Description: The inhibitory potency of all 50 compounds against purified HHAT was quantified using the acylation-coupled lipophilic induction of polarization (acyl-cLIP) assay recently developed in our lab, a universally applicable assay for high-throughput analysis of protein–lipid transferases and hydrolases.[31],[40] In brief, in this assay a fluorescently labeled peptide based on the N-terminal sequence of SHH is incubated with N-dodecyl β-D-maltoside (DDM) solubilized purified HHAT, palmitoyl-CoA, and HHAT inhibitors. Binding of the lipidated peptide product to the DDM micelle results in decreased tumbling rate and an increase in polarization of fluorescence emission, enabling facile quantification of HHAT activity. Initially, % HHAT inhibition was determined at 50 μM and 25 μM for all analogues. […] HHAT is a 12-pass TM protein,[14] and we considered whether lipophilicity might bias inhibition; pIC50 values were compared to calculated log D, which indicated no significant correlation (SI, Table S1 and Figure S2). We concluded that lipophilicity is not a general driver of HHAT inhibitory potency.
The acyl-cLIP assay has been described previously.[40] Briefly, SHH-FAM peptide was diluted in buffer A (100 mM MES, 20 mM NaCl, 1 mM DTT, 1 mM TCEP, 0.1% BSA, pH 6.5) to a concentration of 2 μM. Palmitoyl-CoA (Sigma-Aldrich) was diluted in buffer A to 7.5 μM and recombinant HHAT (obtained by following the published protocol[14]) in buffer B (20 mM HEPES, 350 mM NaCl, 1% DDM, 5% glycerol, pH 7.3) diluted to 44 μg/mL. 1.5 μL of a 50 mM inhibitor DMSO stock was diluted with 18.5 μL of DMSO and further serial diluted (1:1). For each condition, 6 μL of the HHAT working stock and […] of the SHH-peptide working stock were mixed with 3 μL of the corresponding inhibitor concentration or DMSO vehicle. Twelve μL/well of this mixture was split into four wells of a black 384 well plate. To start the reaction, 8 μL of the Pal-CoA working stock were added to each well and fluorescence anisotropy and the total fluorescence recorded on an EnVision Xcite 2104 (PerkinElmer) over 30 min (emission filter 1 = FITC FP P-pol 535; emission filter 2 = FITC S-pol 535; excitation filter: FITC FP 480; measurement height = 6.5 mm; detector gain = 0; high concentration gain). Initial rate constants were determined by linear regression and normalized to DMSO control and samples with buffer B instead of HHAT. IC50 values were extracted from the corresponding dose response curves using a “sigmoidal dose response (variable slope)” model in GraphPad Prism 5 (GraphPad Software, Inc.).

T1 sequence (Q5VTY9 whole entry): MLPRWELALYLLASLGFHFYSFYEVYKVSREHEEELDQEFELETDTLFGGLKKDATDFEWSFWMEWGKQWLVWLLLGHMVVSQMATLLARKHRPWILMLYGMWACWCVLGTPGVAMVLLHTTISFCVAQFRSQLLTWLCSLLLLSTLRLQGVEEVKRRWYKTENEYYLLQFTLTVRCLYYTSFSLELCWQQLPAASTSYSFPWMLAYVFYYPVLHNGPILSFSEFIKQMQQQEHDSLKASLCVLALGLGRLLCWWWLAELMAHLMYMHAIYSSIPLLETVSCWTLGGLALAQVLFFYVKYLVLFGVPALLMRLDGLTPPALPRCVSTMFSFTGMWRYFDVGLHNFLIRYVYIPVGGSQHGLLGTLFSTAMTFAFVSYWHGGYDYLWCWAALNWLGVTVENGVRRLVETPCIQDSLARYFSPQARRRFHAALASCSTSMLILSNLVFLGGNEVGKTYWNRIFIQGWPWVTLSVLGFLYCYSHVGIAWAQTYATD

Row | SMILES | inhibition at 25 µM (purified HHAT) [%] | inhibition at 50 µM (purified HHAT) [%] | IC50 (purified HHAT) [µM] | HHAT inhibition in the acyl-cLIP assay (purified HHAT) | viability at 72 h, 12.5 µM [1] [%] | viability at 72 h, 25 µM [1] [%] | CC50 at 72 h [1] [µM]
1 | CC(C)CNCC(=O)N1CCc2ccccc2C1c1ccccc1 (stereo in doubt) [Compound 42, (S)-2-((2-Methylpropyl)amino)-1-(1-phenyl-3,4-dihydroisoquinolin-2(1H)-yl)ethan-1-one] | 6 ± 2 | 7 ± 2 | > 100 | no inhibitory activity | 92 ± 4 | 91 ± 2 | > 100
2 | c1ccc(C2NCCc3sccc32)cc1 (stereo not drawn) [Compound 4] | 5 ± 3 | -16 ± 16 | > 25 | inactive | 90 ± 2 | 84 ± 3 | –
3 | CC(=S)N1CCc2sccc2C1c1ccccc1 (stereo not drawn) [Compound 6] | 44 ± 7 | 38 ± 2 | > 25 | – | 27 ± 2 | 29 ± 5 | –
4 | N[C@H](C(=O)N1CCc2sccc2C1c1ccccc1)c1ccccc1 (stereo partly drawn) [Compound 10, (2S)-2-Amino-2-phenyl-1-(4-phenyl-6,7-dihydrothieno[3,2-c]pyridin-5(4H)-yl)ethan-1-one] | 18 ± 1 | 21 ± 7 | > 25 | – | 74 ± 3 | 43 ± 2 | –
5 | N[C@@H](Cc1ccccc1)C(=O)N1CCc2sccc2C1c1ccccc1 (stereo partly drawn) [Compound 11, (2S)-2-Amino-3-phenyl-1-(4-phenyl-6,7-dihydrothieno[3,2-c]pyridin-5(4H)-yl)propan-1-one] | -6 ± 3 | -2 ± 6 | > 25 | – | 46 ± 2 | 38 ± 1 | –
6 | CCCCCCCC(=O)N1CCc2sccc2C1c1ccccc1 (stereo not drawn) [Compound 13, 1-(4-Phenyl-6,7-dihydrothieno[3,2-c]pyridin-5(4H)-yl)octan-1-one] | 6 ± 6 | 4 ± 6 | > 25 | loss of activity | 47 ± 1 | 35 ± 2 | –
7 | Cc1cccc(C2NCCc3sccc32)c1 (stereo not drawn) [Compound 14] | 5 ± 3 | -16 ± 16 | > 25 | inactive | 72 ± 3 | 74 ± 3 | –
8 | C=CCN1CCc2sccc2C1c1cccc(C)c1 (stereo not drawn) [Compound 15] | -1 ± 5 | -5 ± 9 | > 25 | no inhibitory effect | 81 ± 2 | 74 ± 2 | –
9 | CCC(C)CNCC(=O)N1CCc2cc(OC)c(OC)cc2C1c1ccccc1 (stereo not drawn) [Compound 44, 1-(6,7-Dimethoxy-1-phenyl-3,4-dihydroisoquinolin-2(1H)-yl)-2-((2-methylbutyl)amino)ethan-1-one] | 7 ± 3 | 8 ± 2 | > 100 | complete loss of HHAT inhibition | 96 ± 3 | 95 ± 5 | > 100

Continued, in another order:

Row | inhibition at 25 µM (purified HHAT) [%] | inhibition at 50 µM (purified HHAT) [%] | IC50 (purified HHAT) [µM] | HHAT inhibition in the acyl-cLIP assay (purified HHAT) | SMILES | viability at 72 h, 12.5 µM [1] [%] | viability at 72 h, 25 µM [1] [%] | CC50 at 72 h [1] [µM]
10 | 4 ± 5 | 30 ± 2 | > 25 | – | O=C([C@@H]1CCCN1)N1CCc2sccc2C1c1ccccc1 (mixture of isomers) [Compound 9, (S)-4-Phenyl-5-prolyl-4,5,6,7-tetrahydrothieno[3,2-c]pyridine] | 90 ± 5 | 81 ± 5 | –
11 | 16 ± 5 | 2 ± 2 | > 25 | inactive | Clc1ccc(OCC2NCCc3sccc32)cc1 (stereo not drawn) [Compound 1] | 95 ± 3 | 84 ± 4 | –
12 | 42 ± 1 | 67 ± 3 | – | – | C[C@H](N)C(=O)N1CCc2sccc2C1c1ccccc1 (stereo partly drawn) [Compound 7, (2S)-2-Amino-1-(4-phenyl-6,7-dihydrothieno[3,2-c]pyridin-5(4H)-yl)propan-1-one] | 99 ± 3 | 74 ± 4 | –
13 | 9 ± 4 | 7 ± 11 | > 25 | – | CC(C)[C@H](N)C(=O)N1CCc2sccc2C1c1ccccc1 (stereo partly drawn) [Compound 8, (2S)-2-Amino-3-methyl-1-(4-phenyl-6,7-dihydrothieno[3,2-c]pyridin-5(4H)-yl)butan-1-one] | 92 ± 3 | 92 ± 3 | –
14 | 9 ± 10 | -2 ± 19 | > 25 | inactive | Cc1cccc(C2NCCc3sccc32)n1 (stereo not drawn) [Compound 20] | 82 ± 2 | 68 ± 3 | –
15 | 4 ± 7 | 27 ± 6 | > 100 | no inhibitory activity | CC(=O)N1CCc2sccc2[C@H]1c1cccc(C)n1 [Compound 27, (S)-1-(4-(6-Methylpyridin-2-yl)-6,7-dihydrothieno[3,2-c]pyridin-5(4H)-yl)ethan-1-one] | 90 ± 4 | 89 ± 3 | > 100
16 | 24 ± 1 | 31 ± 1 | > 25 | – | CC(=O)N1CCc2sccc2C1c1ccccc1O (stereo not drawn) [Compound 33] | 88 ± 3 | 87 ± 5 | > 100
17 | 6 ± 7 | 8 ± 7 | > 25 | loss of activity | CC(=O)N1CCc2sccc2C1C1CCCCC1 (stereo not drawn) [Compound 35] | 54 ± 2 | 59 ± 3 | –
18 | 24 ± 1 | 24 ± 14 | > 25 | loss of activity | CCC(C)CNCC(=O)N1CCc2sccc2C1C1CCCCC1 (stereo not drawn) [Compound 36, 1-(4-Cyclohexyl-6,7-dihydrothieno[3,2-c]pyridin-5(4H)-yl)-2-((2-methylbutyl)amino)ethan-1-one] | 47 ± 4 | 25 ± 1 | –
19 | 7 ± 1 | 12 ± 1 | > 25 | loss of potency | C=CC(=O)N1CCn2cccc2C1c1ccccc1 (stereo not drawn) [Compound 46, 1-(1-Phenyl-3,4-dihydropyrrolo[1,2-a]pyrazin-2(1H)-yl)prop-2-en-1-one] | 96 ± 2 | 97 ± 2 | > 100
20 | -14 ± 2 | -3 ± 2 | > 25 | – | CC(=O)N1CCCCC1c1ccccc1 (stereo not drawn) [Compound 47, 1-(2-Phenylpiperidin-1-yl)ethan-1-one] | 95 ± 2 | 93 ± 5 | > 50
21 | -2 ± 3 | -3 ± 2 | > 25 | – | C=CC(=O)N1CCCCC1c1ccccc1 (stereo not drawn) [Compound 48, 1-(2-Phenylpiperidin-1-yl)prop-2-en-1-one] | 93 ± 2 | 90 ± 2 | > 100
